Data taken from US12310975B2, “Modulators of BCL6 proteolysis and associated methods of use” (Arvinas Operations, Inc., priority 2019, dated 2025).

Legend:
[1] = molecular target: T1, BCL6 (Homo sapiens (Human), UniProt P41182); experiment: BCL6 TR-FRET assay (BCL6-Avitag-Biotin / BCoR-Cy5 peptide); assay type: binding
Procedure: Protein Synthesis. BCL6 protein was expressed by transforming Invitrogen One Shot cells with GS63525 pET24a-His-SUMO-TEV-BCLm-Avitag plasmid following manufacturer's instructions. In addition, biotin at a final concentration of 50 μM, and IPTG at a final concentration of 1 mM was added to the culture and incubated at room temperature shaking overnight.
Assay buffer A: 50 mM HEPES pH 7.5, 125 mM NaCl, 0.01% TritonX.
Assay buffer B (made fresh): buffer A+1 mM Glutathione (or 0.5 mM DTT).
Assay buffer C (made fresh): buffer B+0.03% BSA.
Black Proxy plates, 96 well.
15 μl final reaction volumes (BCoR-Cy5 100 nM, SA-Eu 2 nM, BCL6-avitag 2 nM).
[…] BCL6-Avitag-Biotin stock: made fresh by adding 2 μl of BCL6-Avitag-Biotin to 31.5 ml Buffer C.
1 mM BCoR-Cy5 peptide (LifeTein) stock in Dimethylformamide (DMF).
300 nM BCoR-Cy5 working stock: made fresh by adding 4.5 μl of the 1 mM BCoR-Cy5 peptide stock to 15 ml Buffer B.
10 μM Eu-Streptavidin (Lance Eu-W1024 Streptavidin, PerkinElmer) stock solution.
6 nM Eu-Streptavidin working stock: made fresh by adding 9 μl Eu-Streptavidin stock solution to 15 ml Buffer A.
Compounds were diluted to 10 mM. Twenty microliters of DMSO was aliquoted to each well of the microtiter plates. From the 10 mM compound stock, 8.7 ul was aliquoted to the 20 ul DMSO and 3-fold serial dilutions (12 pt 3-0.01 uM tritration plate, 96 well, 100% DMSO) performed. Five ul from the titration plate wells was aliquoted to 45 ul Buff C (Intermediate dilution plates, 10% DMSO).
Spot 1.5 μl compound titrations to 384-well plates in duplicate, and spot 3.5 μl [8.5 nM] BCL6-bio protein to each well. The plate was mix briefly, centrifuged, and incubated for 30 minutes at room temperature.
Mix 14 mls of BCoR-Cy5 [300 nM] and 14 mls [6 nM] Eu-Streptavidin. Spot 10 μl BCoR-Cy5/SA-Eu (1:1) mix to each well. The plates were incubated for 2 hours and then read on an Envision plate reader.

[2] = molecular target: T1, BCL6; experiment: Immunofluorescence high content imaging of BCL6 degradation in T47D cells; assay type: cell-based; details: for DC50: class symbols A-D, read-out: EC50 (nM)*
Summary of the method: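 Following a 3-day incubation with serially diluted bifunctional compounds (final top 0.1 or 1 μM), T47D cells were PFA-fixed and immunostained for BCL6. Nuclear BCL6 signal was captured on a high-content imager.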

[3] = class symbols A-D, read-out: IC50 (nM)***
[4] = T47D, maximum, class symbols A-C

SMILES	IC50 [1, 3] [nM]	Dmax [2, 4] [%]	DC50 [2] [nM]	IC50 ([1]; read-out: IC50) [nM]	Dmax ([2]; T47D) [%]	other results
CNC(=O)COc1cc2cc(Nc3nc(N4CCC(OCCCCOc5cc(-c6scnc6C)ccc5CNC(=O)[C@@H]5C[C@@H](O)CN5C(=O)C(c5cc(C)no5)C(C)C)CC4)ncc3Cl)ccc2n(C)c1=O (stereo partly drawn) [compound 159, (2S,4R)-N-(2-(4-((1-(5-chloro-4-((1-methyl-3-(2-(methylamino)-2-oxoethoxy)-2-oxo-1,2-dihydroquinolin-6-yl)amino)pyrimidin-2-yl)piperidin-4-yl)oxy)butoxy)-4-(4-methylthiazol-5-yl)benzyl)-4-hydroxy-1-(3-methyl-2-(3-methylisoxazol-5-yl)butanoyl)pyrrolidine-2-carboxamide]	10 to 50	< 50	> 100	–	–	–
CC(=O)COc1cc2cc(Nc3nc(C#CC4CCN(c5ccc6c(c5)C(=O)N(C5CCC(=O)NC5=O)C6=O)CC4)ncc3Cl)ccc2n(C)c1=O (stereo not shown) [compound 171, 5-(4-((5-chloro-4-((1-methyl-2-oxo-3-(2-oxopropoxy)-1,2-dihydroquinolin-6-yl)amino)pyrimidin-2-yl)ethynyl)piperidin-1-yl)-2-(2,6-dioxopiperidin-3-yl)isoindoline-1,3-dione]	10 to 50	< 50	10 to 50	–	–	–
CNC(=O)COc1cc2cc(Nc3nc(N4CCC(CN5CCN(c6ccc7c(c6)C(=O)N(C6CCC(=O)NC6=O)C7=O)CC5)CC4)ncc3Cl)ccc2n(C)c1=O (stereo not shown) [compound 104, 2-((6-((5-chloro-2-(4-((4-(2-(2,6-dioxopiperidin-3-yl)-1,3-dioxoisoindolin-5-yl)piperazin-1-yl)methyl)piperidin-1-yl)pyrimidin-4-yl)amino)-1-methyl-2-oxo-1,2-dihydroquinolin-3-yl)oxy)-N-methylacetamide]	10 to 50	50 to 70	10 to 50	–	–	–
CC(=O)COc1cc2cc(Nc3nc(N4CCC(CN5CCC(Oc6ccc7c(c6)C(=O)N(C6CCC(=O)NC6=O)C7=O)CC5)C4)ncc3Cl)ccc2n(C)c1=O (stereo not shown) [compound 154, 5-((1-((1-(5-chloro-4-((1-methyl-2-oxo-3-(2-oxopropoxy)-1,2-dihydroquinolin-6-yl)amino)pyrimidin-2-yl)pyrrolidin-3-yl)methyl)piperidin-4-yl)oxy)-2-(2,6-dioxopiperidin-3-yl)isoindoline-1,3-dione]	50 to 100	< 50	10 to 50	–	–	–
CNC(=O)COc1cc2cc(Nc3nc(N4CCN(CC5CC6(C5)CN(c5ccc7c(c5)C(=O)N(C5CCC(=O)NC5=O)C7=O)C6)CC4)ncc3Cl)ccc2n(C(C)C)c1=O (stereo not shown) [compound 523, 2-{[6-({5-chloro-2-[4-({2-[2-(2,6-dioxopiperidin-3-yl)-1,3-dioxo-2,3-dihydro-1H-isoindol-5-yl]-2-azaspiro[3.3]heptan-6-yl}methyl)piperazin-1-yl]pyrimidin-4-yl}amino)-2-oxo-1-(propan-2-yl)-1,2-dihydroquinolin-3-yl]oxy}-N-methylacetamide]	–	–	–	< 10	50 to 70	–
CNC(=O)COc1cc2cc(Nc3nc(N4CCN(C[C@H]5C[C@H](N6CCN(c7cccc8c7C(=O)N(C7CCC(=O)NC7=O)C8=O)CC6)C5)CC4)ncc3Cl)ccc2n(C(C)C)c1=O (stereo partly shown) [compound 537, 2-[(6-{[5-chloro-2-(4-{[(1r,3r)-3-{4-[2-(2,6-dioxopiperidin-3-yl)-1,3-dioxo-2,3-dihydro-1H-isoindol-4-yl]piperazin-1-yl}cyclobutyl]methyl}piperazin-1-yl)pyrimidin-4-yl]amino}-2-oxo-1-(propan-2-yl)-1,2-dihydroquinolin-3-yl)oxy]-N-methylacetamide]	–	–	–	< 10	< 50	–
CNC(=O)COc1cc2cc(Nc3nc(N4CCN(CC5CCN(c6ccc(C(=O)NC7CCC(=O)NC7=O)nn6)CC5)CC4)ncc3Cl)ccc2n(C)c1=O (stereo not shown) [compound 278, 6-[4-({4-[5-chloro-4-({1-methyl-3-[(methylcarbamoyl)methoxy]-2-oxo-1,2-dihydroquinolin-6-yl}amino)pyrimidin-2-yl]piperazin-1-yl}methyl)piperidin-1-yl]-N-(2,6-dioxopiperidin-3-yl)pyridazine-3-carboxamide]	–	–	–	–	< 50	EC50 [1]: < 10 nM; IC50 [2]: 50 to 100 nM
CC(=O)COc1cc2cc(Nc3nc(N4CCC(CCN5CCN(c6ccc7c(c6)C(=O)N(C6CCC(=O)NC6=O)C7=O)CC5)CC4)ncc3Cl)ccc2n(C)c1=O (stereo not shown) [compound 162, 5-(4-(2-(1-(5-chloro-4-((1-methyl-2-oxo-3-(2-oxopropoxy)-1,2-dihydroquinolin-6-yl)amino)pyrimidin-2-yl)piperidin-4-yl)ethyl)piperazin-1-yl)-2-(2,6-dioxopiperidin-3-yl)isoindoline-1,3-dione]	10 to 50	< 50	10 to 50	–	–	–
CNC(=O)COc1cc2cc(Nc3nc(N4CCC(CN5CCC6(CC5)CCN(c5ccc(N7CCC(=O)NC7=O)cc5)C6)CC4)ncc3Cl)ccc2n(C(C)C)c1=O [compound 497, 2-{[6-({5-chloro-2-[4-({2-[4-(2,4-dioxo-1,3-diazinan-1-yl)phenyl]-2,8-diazaspiro[4.5]decan-8-yl}methyl)piperidin-1-yl]pyrimidin-4-yl}amino)-2-oxo-1-(propan-2-yl)-1,2-dihydroquinolin-3-yl]oxy}-N-methylacetamide]	–	–	–	< 10	< 50	–
CONC(=O)COc1cc2cc(Nc3nc(N4CCC(CN5CCN(c6ccc7c(c6)C(=O)N(C6CCC(=O)NC6=O)C7=O)CC5)CC4)ncc3Cl)ccc2n(C)c1=O (stereo not shown) [compound 209, 2-((6-((5-chloro-2-(4-((4-(2-(2,6-dioxopiperidin-3-yl)-1,3-dioxoisoindolin-5-yl)piperazin-1-yl)methyl)piperidin-1-yl)pyrimidin-4-yl)amino)-1-methyl-2-oxo-1,2-dihydroquinolin-3-yl)oxy)-N-methoxyacetamide]	–	–	–	–	≥ 70	EC50 [1]: > 100 nM; IC50 [2]: 10 to 50 nM
CC(=O)COc1cc2cc(Nc3nc(N4CCN(CC5CCN(c6ccc7c(c6)C(=O)N(C6CCC(=O)NC6=O)C7=O)CC5)CC4)ncc3Cl)ccc2n(C)c1=O (stereo not shown) [compound 148, 5-(4-((4-(5-chloro-4-((1-methyl-2-oxo-3-(2-oxopropoxy)-1,2-dihydroquinolin-6-yl)amino)pyrimidin-2-yl)piperazin-1-yl)methyl)piperidin-1-yl)-2-(2,6-dioxopiperidin-3-yl)isoindoline-1,3-dione]	< 10	50 to 70	10 to 50	–	–	–
CN1C(=O)CCc2cc(Nc3nc(N4CCN(CC5CCN(c6cccc7c6C(=O)N(C6CCC(=O)NC6=O)C7=O)CC5)CC4)ncc3Cl)ccc21 (stereo not shown) [compound 378, 4-{4-[(4-{5-chloro-4-[(1-methyl-2-oxo-1,2,3,4-tetrahydroquinolin-6-yl)amino]pyrimidin-2-yl}piperazin-1-yl)methyl]piperidin-1-yl}-2-(2,6-dioxopiperidin-3-yl)-2,3-dihydro-1H-isoindole-1,3-dione]	–	–	–	–	–	EC50 [1]: > 100 nM; Dmax ([2]; T47D cells): < 50%; IC50 ([2]; T47D cells): ≥ 100 nM
CNC(=O)COc1cc2cc(Nc3nc(N4CCN(C(C)(C)C5CCN(c6c(OC)ccc(C(=O)NC7CCC(=O)NC7=O)c6F)CC5)CC4)ncc3Cl)ccc2n(C)c1=O (stereo not shown) [compound 481, 3-[4-(2-{4-[5-chloro-4-({1-methyl-3-[(methylcarbamoyl)methoxy]-2-oxo-1,2-dihydroquinolin-6-yl}amino)pyrimidin-2-yl]piperazin-1-yl}propan-2-yl)piperidin-1-yl]-N-(2,6-dioxopiperidin-3-yl)-2-fluoro-4-methoxybenzamide]	–	–	–	< 10	≥ 70	–
CNC(=O)COc1cc2cc(Nc3nc(N4CCC5(CCN(CC6CCN(c7cccc8c7C(=O)N(C7CCC(=O)NC7=O)C8=O)CC6)CC5)CC4)ncc3Cl)ccc2n(C(C)C)c1=O (stereo not shown) [compound 533, 2-{[6-({5-chloro-2-[9-({1-[2-(2,6-dioxopiperidin-3-yl)-1,3-dioxo-2,3-dihydro-1H-isoindol-4-yl]piperidin-4-yl}methyl)-3,9-diazaspiro[5.5]undecan-3-yl]pyrimidin-4-yl}amino)-2-oxo-1-(propan-2-yl)-1,2-dihydroquinolin-3-yl]oxy}-N-methylacetamide]	–	–	–	< 10	≥ 70	–
CC(=O)COc1cc2cc(Nc3nc(N4CCN(C)C(COc5ccc6c(c5)C(=O)N(C5CCC(=O)NC5=O)C6=O)C4)ncc3Cl)ccc2n(C)c1=O (stereo not shown) [compound 194, 5-((4-(5-chloro-4-((1-methyl-2-oxo-3-(2-oxopropoxy)-1,2-dihydroquinolin-6-yl)amino)pyrimidin-2-yl)-1-methylpiperazin-2-yl)methoxy)-2-(2,6-dioxopiperidin-3-yl)isoindoline-1,3-dione]	–	–	–	–	50 to 70	EC50 [1]: 10 to 50 nM; IC50 [2]: ≥ 100 nM
